Source: PubChem BioAssay (NCI)
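96-well plates; 48 h exposure; 5 concentrations. Endpoints by linear interpolation between flanking doses. Not reached: highest tested concentration assigned. Here, GI50 denotes the concentration required for 50% inhibition of growth. The concentration for full growth arrest is given as TGI.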

Columns and labels:
Test in all cases: inhibition of tumour cell growth, NCI panel, 48 h
MDA-N = system: MDA-N
A498 renal = system: A498 renal
MOLT-4 leukemia = system: MOLT-4 leukemia
HOP-62 NSCLC = system: HOP-62 NSCLC
T-47D breast = system: T-47D breast
UACC-257 melanoma = system: UACC-257 melanoma
OVCAR-5 ovarian = system: OVCAR-5 ovarian
MDA-MB-435 = system: MDA-MB-435
NCI-H522 lung = system: NCI-H522 lung
COLO 205 colon = system: COLO 205 colon
LOX IMVI melanoma = system: LOX IMVI melanoma
MDA-MB-231 breast = system: MDA-MB-231 breast
MCF7 breast = system: MCF7 breast
ACHN renal = system: ACHN renal
HT29 colon = system: HT29 colon
BT-549 breast = system: BT-549 breast
SK-MEL-2 melanoma = system: SK-MEL-2 melanoma
NCI-H226 lung = system: NCI-H226 lung
A549 NSCLC = system: A549 NSCLC
RPMI-8226 leukemia = system: RPMI-8226 leukemia
SK-OV-3 ovarian = system: SK-OV-3 ovarian
SR leukemia = system: SR leukemia
786-0 renal = system: 786-0 renal
TK-10 renal = system: TK-10 renal
NCI-H460 lung = system: NCI-H460 lung
EKVX NSCLC = system: EKVX NSCLC
UACC-62 melanoma = system: UACC-62 melanoma
SNB-75 CNS = system: SNB-75 CNS
SK-MEL-5 melanoma = system: SK-MEL-5 melanoma
HCC-2998 colon = system: HCC-2998 colon
SF-539 CNS = system: SF-539 CNS
HS 578T breast = system: HS 578T breast
KM12 colon = system: KM12 colon
SK-MEL-28 melanoma = system: SK-MEL-28 melanoma
OVCAR-3 ovarian = system: OVCAR-3 ovarian
SF-268 CNS = system: SF-268 CNS
NCI-H23 lung = system: NCI-H23 lung
SF-295 CNS = system: SF-295 CNS
PC-3 prostate = system: PC-3 prostate
RXF 393 renal = system: RXF 393 renal
OVCAR-8 ovarian = system: OVCAR-8 ovarian
CCRF-CEM leukemia = system: CCRF-CEM leukemia
UO-31 renal = system: UO-31 renal
DU-145 prostate = system: DU-145 prostate
CAKI-1 renal = system: CAKI-1 renal
SW-620 colon = system: SW-620 colon
MALME-3M melanoma = system: MALME-3M melanoma
SNB-19 CNS = system: SNB-19 CNS
IGROV1 ovarian = system: IGROV1 ovarian
NCI/ADR-RES ovarian = system: NCI/ADR-RES ovarian
U251 CNS = system: U251 CNS
OVCAR-4 ovarian = system: OVCAR-4 ovarian
HL-60(TB) leukemia = system: HL-60(TB) leukemia
HCT-15 colon = system: HCT-15 colon
M14 melanoma = system: M14 melanoma
HOP-92 NSCLC = system: HOP-92 NSCLC
SN12C renal = system: SN12C renal
HCT-116 colon = system: HCT-116 colon

Work on `CC[C@@]1(O)C(=O)OCc2c1cc1n(c2=O)Cc2c-1nc1cc3c(cc1c2CCl)OCO3` yielded a GI50 (MDA-N) of under 10 nM, a TGI (MDA-N) of 1630 nM and a GI50 (A498 renal) of under 15.1 nM. It also gave a TGI (A498 renal) of 753 nM, a GI50 (MOLT-4 leukemia) of under 10 nM and a TGI (MOLT-4 leukemia) of under 38 nM. The GI50 (HOP-62 NSCLC) was under 10 nM, the TGI (HOP-62 NSCLC) was under 47.9 nM and the GI50 (T-47D breast) was under 10 nM. The TGI (T-47D breast) was over 71900 nM, the GI50 (UACC-257 melanoma) was under 44.6 nM and the TGI (UACC-257 melanoma) was 1590 nM. It also gave a GI50 (OVCAR-5 ovarian) of 59.3 nM, a TGI (OVCAR-5 ovarian) of 2120 nM and a GI50 (MDA-MB-435) of 59.2 nM. It also gave a TGI (MDA-MB-435) of 2240 nM, a GI50 (NCI-H522 lung) of under 10 nM and a TGI (NCI-H522 lung) of 1360 nM. The GI50 (COLO 205 colon) was 1150 nM, the TGI (COLO 205 colon) was 3400 nM and the GI50 (LOX IMVI melanoma) was under 10 nM. The TGI (LOX IMVI melanoma) was 426 nM, the GI50 (MDA-MB-231 breast) was 1380 nM and the TGI (MDA-MB-231 breast) was 20700 nM. It also gave a GI50 (MCF7 breast) of under 10 nM, a TGI (MCF7 breast) of over 100000 nM and a GI50 (ACHN renal) of under 10 nM. The TGI (ACHN renal) was 32.2 nM, the GI50 (HT29 colon) was 27.1 nM and the TGI (HT29 colon) was over 22300 nM. The GI50 (BT-549 breast) was 106 nM, the TGI (BT-549 breast) was 3990 nM and the GI50 (SK-MEL-2 melanoma) was 206 nM. The TGI (SK-MEL-2 melanoma) was 1220 nM, the GI50 (NCI-H226 lung) was under 10 nM and the TGI (NCI-H226 lung) was 1300 nM. For the same compound, the GI50 (A549 NSCLC) was under 10 nM, the TGI (A549 NSCLC) was 3250 nM and the GI50 (RPMI-8226 leukemia) was under 10 nM. The TGI (RPMI-8226 leukemia) was 309 nM, the GI50 (SK-OV-3 ovarian) was under 10 nM and the TGI (SK-OV-3 ovarian) was 1070 nM. The GI50 (SR leukemia) was under 10 nM, the GI50 (786-0 renal) was under 10 nM and the TGI (786-0 renal) was 238 nM. It also gave a GI50 (TK-10 renal) of 292 nM, a TGI (TK-10 renal) of 11100 nM and a GI50 (NCI-H460 lung) of under 10 nM. The TGI (NCI-H460 lung) was under 31.8 nM, the GI50 (EKVX NSCLC) was 994 nM and the TGI (EKVX NSCLC) was over 44600 nM. For the same compound, the GI50 (UACC-62 melanoma) was under 10 nM, the TGI (UACC-62 melanoma) was 205 nM and the GI50 (SNB-75 CNS) was under 10 nM. The TGI (SNB-75 CNS) was 2080 nM, the GI50 (SK-MEL-5 melanoma) was under 10 nM and the TGI (SK-MEL-5 melanoma) was 1130 nM. The GI50 (HCC-2998 colon) was 365 nM, the TGI (HCC-2998 colon) was 8580 nM and the GI50 (SF-539 CNS) was under 10 nM. For the same compound, the TGI (SF-539 CNS) was under 13.5 nM, the GI50 (HS 578T breast) was 1290 nM and the TGI (HS 578T breast) was over 54100 nM. It also gave a GI50 (KM12 colon) of 181 nM, a TGI (KM12 colon) of 1880 nM and a GI50 (SK-MEL-28 melanoma) of 2330 nM. The TGI (SK-MEL-28 melanoma) was 18900 nM, the GI50 (OVCAR-3 ovarian) was 333 nM and the TGI (OVCAR-3 ovarian) was 3070 nM. It also gave a GI50 (SF-268 CNS) of under 10 nM, a TGI (SF-268 CNS) of 4620 nM and a GI50 (NCI-H23 lung) of under 10 nM. The TGI (NCI-H23 lung) was under 15.3 nM, the GI50 (SF-295 CNS) was under 10 nM and the TGI (SF-295 CNS) was 25.2 nM. It also gave a GI50 (PC-3 prostate) of 39.2 nM, a TGI (PC-3 prostate) of over 36400 nM and a GI50 (RXF 393 renal) of under 13.8 nM. It also gave a TGI (RXF 393 renal) of 1210 nM, a GI50 (OVCAR-8 ovarian) of under 10 nM and a TGI (OVCAR-8 ovarian) of 602 nM. For the same compound, the GI50 (CCRF-CEM leukemia) was under 10 nM, the GI50 (UO-31 renal) was under 10 nM and the TGI (UO-31 renal) was 756 nM. The GI50 (DU-145 prostate) was under 10 nM, the GI50 (CAKI-1 renal) was under 10 nM and the TGI (CAKI-1 renal) was 477 nM. The GI50 (SW-620 colon) was under 13.6 nM, the GI50 (MALME-3M melanoma) was 62.9 nM and the TGI (MALME-3M melanoma) was 2000 nM. For the same compound, the GI50 (SNB-19 CNS) was under 18 nM, the TGI (SNB-19 CNS) was over 100000 nM and the GI50 (IGROV1 ovarian) was 139 nM. The TGI (IGROV1 ovarian) was 5750 nM, the GI50 (NCI/ADR-RES ovarian) was under 10 nM and the TGI (NCI/ADR-RES ovarian) was 133 nM. It also gave a GI50 (U251 CNS) of under 10 nM, a TGI (U251 CNS) of 1900 nM and a GI50 (OVCAR-4 ovarian) of 693 nM. For the same compound, the TGI (OVCAR-4 ovarian) was 11600 nM, the GI50 (HL-60(TB) leukemia) was under 10 nM and the GI50 (HCT-15 colon) was 192 nM. The TGI (HCT-15 colon) was 12300 nM, the GI50 (M14 melanoma) was 32 nM and the TGI (M14 melanoma) was 403 nM. For the same compound, the GI50 (HOP-92 NSCLC) was under 10 nM, the TGI (HOP-92 NSCLC) was 466 nM and the GI50 (SN12C renal) was under 10 nM. For the same compound, the TGI (SN12C renal) was 367 nM, the GI50 (HCT-116 colon) was under 10 nM and the TGI (HCT-116 colon) was 294 nM.
